{
  "source": "patent US11510964B2",
  "about": "“Macrocyclic peptides to decrease c-Myc protein levels and reduce cancer cell growth” (University of Kansas, priority 2017, dated 2022)",
  "key": {"[1]": {"details": "mice, dose of 60 mg/kg; cited from earlier work"}, "[2]": {"details": "cited from earlier work"}, "Erk in PC-3 cells": {"system": "Erk in PC-3 cells", "assay": "Western blot of p-Erk/total Erk protein levels", "assay_type": "cell-based, human", "procedure": "(§1) Cells were seeded in 6 well plates at a density of 1×10^5 cells/well and grown to 75% confluence. Cells were treated with [D-Trp]CJ-15,208 at the indicated concentrations. Cells were then harvested as described above, and the cell pellets lysed in RIPA buffer consisting of 10 mM Tris HCl, pH 8.0, 150 mM NaCl, 1 mM EDTA, 1% Triton-X-100, 0.1% SDS, 1% sodium deoxycholate, and a protease inhibitor cocktail #P8340 (Sigma). Cell lysates were centrifuged at 13×1000 rpm for 15 min and the supernatants collected. The total protein concentration was measured in cell lysates using the standard Bradford assay. SDS gel electrophoresis was performed using 4-20% polyacrylamide gel (BioRad). […] Signal densities of the protein bands were determined using ImageJ software (NIH) and normalized to the internal loading control (actin).\n(§2) Each experiment was performed in triplicate unless otherwise stated in the figure legend. […] The effects of compound vs. vehicle treatment on protein levels (FIG. 10) were evaluated by one-way ANOVA with Dunnett's test for multiple comparisons."}, "Akt in PC-3 cells": {"system": "Akt in PC-3 cells", "assay": "Western blot of p-Akt/total Akt protein levels", "assay_type": "cell-based, human", "details": "48 h", "procedure": "as §1, §2"}, "[3]": {"system": "PC-3 cells xenograft tumors", "assay": "Mouse xenograft model, tumor growth inhibition", "assay_type": "in vivo", "details": "PC-3 xenograft in nude mice, 30 mg/kg intraperitoneally three times per week", "procedure": "An in-vivo study was performed to determine tumor growth inhibition by [D-Trp]CJ-15,208 in a mouse xenograft model. PC-3 cells were injected subcutaneously in both rear flanks of nude mice. Once tumors were established, mice were treated intraperitoneally three times per week with either vehicle (50% DMSO, 45% PEG 400, and 5% polyoxyethylene (20) sorbitan monooleate (Tween 80); 3 mice, 6 tumors) or [D-Trp]CJ-15,208 (30 mg/kg in vehicle; 2 mice, 3 tumors). Tumor volume was measured using calipers."}, "HEK cells": {"system": "HEK cells", "assay": "Cell proliferation assay (WST-1)", "assay_type": "cell-based, human", "procedure": "(§3) Human prostate cancer PC-3 cells were cultured and maintained in EMEM (ATCC), non-prostate HEK (human embryonic kidney) cells were cultured in DMEM, human prostate cancer DU145, LNCaP, 22Rv1 cells were cultured in RPMI 1640 (ATCC), and normal BPH-1 prostate cells and prostate cancer C4-2 cell line were cultured in RPMI 1640 (ATCC), all containing 10% fetal bovine serum (Atlanta Biologicals) and 1% penicillin/streptomycin (Invitrogen). Cells were grown at 37° C. in humidified air with 5% CO2 and passaged every fourth to fifth day following trypsinization with trypsin/EDTA (Invitrogen).^16\n(§4) PC-3, LNCaP, DU 145, 22Rv1, C4-2, BPH-1, and HEK cells were grown to a density of 2000 cells/well in 96 well plates and treated with [D-Trp]CJ-15,208 or other peptides for 24-72 h in duplicate. Media containing [D-Trp]CJ-15,208 was changed every 24 h. The proliferation of treated cells was determined using the cell proliferation reagent WST-1 (Roche) per the manufacturer's instructions and compared to […] control cells in 1% DMSO in media. After treatment with compound 10 μL of the reagent was added to the well in 100 μL culture media, and the cells incubated at 37° C. for 30 min. The absorbance of the media in each well was measured at […] using a plate reader (BioTek). The percentage cell proliferation was normalized to vehicle treated control cells calculated as: (mean absorbance of sample/mean absorbance of control cells)×100.^38\n(§5) Each experiment was performed in triplicate unless otherwise stated in the figure legend. GraphPad Prism 5 was used to determine IC50 values. Data represent the mean value+/−SEM. Compound vs. vehicle treated cells in the cell cycle phase and apoptosis experiments (FIGS. 5-8) were compared using the student's t-test, with a two-tailed, unpaired method, using the Prism software. The effects of compound vs. vehicle treatment on protein levels (FIG. 10) were evaluated by one-way ANOVA with Dunnett's test for multiple comparisons."}, "LNCaP cells": {"system": "LNCaP cells", "assay_type": "cell-based, human", "details": "read-out: IC50, cell growth", "procedure": "as §3, §4, §5"}, "22Rv1 cells": {"system": "22Rv1 cells", "assay_type": "cell-based, human", "details": "read-out: IC50, cell growth", "procedure": "as §3, §4, §5"}, "PC-3 cells": {"system": "PC-3 cells", "assay_type": "cell-based, human", "details": "read-out: IC50, cell growth", "procedure": "as §3, §4, §5"}, "DU145 cells": {"system": "DU145 cells", "assay_type": "cell-based, human", "details": "read-out: IC50, cell growth", "procedure": "as §3, §4, §5"}},
  "note": "“Also recorded” adds a separate entry of the source. Read-outs that look alike come from different tables or passages of the source. Non-standard residues stand in square brackets, D forms with d. Residues, ends and D or L forms follow the SMILES beside them.",
  "data": [
    {"smiles": "O=C1N[C@H](Cc2c[nH]c3ccccc23)C(=O)N[C@@H](Cc2ccccc2)C(=O)N2CCC[C@@H]2C(=O)N[C@H]1Cc1ccccc1", "note": "[[D-Trp]CJ-15,208, cyclo[Phe-D-Pro-Phe-D-Trp]] (cyclo(F[dP]F[dW]))", "values": [
      {"measurement": "toxicity", "setting": "[1]", "result": "no evidence of toxicity"},
      {"measurement": "activity after oral administration", "setting": "[2]", "result": "active after oral administration"},
      {"measurement": "total Erk protein levels", "setting": "Erk in PC-3 cells; PC-3, 48 h", "result": "did not decrease significantly"},
      {"measurement": "cellular levels of p-Erk", "setting": "Erk in PC-3 cells; PC-3, increasing concentrations, 48 h", "result": "did not change significantly"},
      {"measurement": "total Akt protein levels", "setting": "Akt in PC-3 cells; PC-3, highest concentration (50 μM)", "result": "significant decrease"},
      {"measurement": "cellular levels of p-Akt", "setting": "Akt in PC-3 cells; PC-3, increasing concentrations", "result": "did not change significantly"},
      {"measurement": "tumor growth compared to vehicle", "setting": "[3]", "result": "decrease in tumor growth"},
      {"measurement": "IC50, cell growth", "setting": "HEK cells; 48 h", "result": "No effect"},
      {"measurement": "IC50, cell growth", "setting": "HEK cells; 72 h", "result": "No effect"},
      {"measurement": "effect on cell proliferation / cytotoxicity", "setting": "HEK cells; time not stated", "result": "No cytotoxicity was observed; also recorded: did not prevent cell proliferation"},
      {"measurement": "IC50", "setting": "LNCaP cells; 48 h", "result": "> 50", "unit": "µM"},
      {"measurement": "IC50", "setting": "LNCaP cells; 72 h", "result": "3 ± 1", "unit": "µM"},
      {"measurement": "IC50", "setting": "22Rv1 cells; 48 h", "result": "8.8 ± 4", "unit": "µM"},
      {"measurement": "IC50", "setting": "22Rv1 cells; 72 h", "result": "4 ± 0.8", "unit": "µM"},
      {"measurement": "IC50", "setting": "PC-3 cells; 48 h", "result": "16.5 ± 0.7", "unit": "µM"},
      {"measurement": "IC50", "setting": "PC-3 cells; 72 h", "result": "2 ± 1", "unit": "µM"},
      {"measurement": "IC50", "setting": "DU145 cells; 48 h", "result": "1.2 ± 0.2", "unit": "µM"},
      {"measurement": "IC50", "setting": "DU145 cells; 72 h", "result": "0.7 ± 0.1", "unit": "µM"}
    ]}
  ]
}
